US5605906A, “Cannabinoid receptor agonists” (Merck Frosst Canada, Inc., priority 1995, dated 1997)
Values joined by “and” are separate entries in the source; they are usually repeats but may differ in a detail not shown here. Identical values can stand only once.

Columns and labels:
[1] = target: T1, human peripheral cannabinoid (CB2) receptor (Homo sapiens, UniProt P34972); assay: CB2 receptor binding assay ([3H]Win 55212-2, CHO-K1 membranes); details: [3H]Win 55212-2 2.4 nM, pH 7.4, 30 °C, 40 min
T1 construct: expressed in transfected cells; host or cells: CHO-K1
T1 sequence (P34972 whole entry): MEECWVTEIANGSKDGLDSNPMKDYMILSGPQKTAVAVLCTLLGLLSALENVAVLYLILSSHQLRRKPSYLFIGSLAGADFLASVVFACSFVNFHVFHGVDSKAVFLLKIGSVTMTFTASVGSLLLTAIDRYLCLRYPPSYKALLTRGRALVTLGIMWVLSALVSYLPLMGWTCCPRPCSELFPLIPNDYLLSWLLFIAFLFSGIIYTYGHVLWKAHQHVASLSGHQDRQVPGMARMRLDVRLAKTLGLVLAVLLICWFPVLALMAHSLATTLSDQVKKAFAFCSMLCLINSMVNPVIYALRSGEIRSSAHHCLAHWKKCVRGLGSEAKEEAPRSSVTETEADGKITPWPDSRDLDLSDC

[2] = target: T2, human central cannabinoid (CB 1) receptor (Homo sapiens, UniProt P21554); assay: CB1 receptor binding assay ([3H]CP55940, HEK293(EBNA) membranes); details: [3H]CP55940 0.6 nM, pH 7.4, 30 °C, 60 min
T2 construct: expressed in transfected cells; host or cells: HEK293(EBNA)
T2 sequence (P21554 whole entry): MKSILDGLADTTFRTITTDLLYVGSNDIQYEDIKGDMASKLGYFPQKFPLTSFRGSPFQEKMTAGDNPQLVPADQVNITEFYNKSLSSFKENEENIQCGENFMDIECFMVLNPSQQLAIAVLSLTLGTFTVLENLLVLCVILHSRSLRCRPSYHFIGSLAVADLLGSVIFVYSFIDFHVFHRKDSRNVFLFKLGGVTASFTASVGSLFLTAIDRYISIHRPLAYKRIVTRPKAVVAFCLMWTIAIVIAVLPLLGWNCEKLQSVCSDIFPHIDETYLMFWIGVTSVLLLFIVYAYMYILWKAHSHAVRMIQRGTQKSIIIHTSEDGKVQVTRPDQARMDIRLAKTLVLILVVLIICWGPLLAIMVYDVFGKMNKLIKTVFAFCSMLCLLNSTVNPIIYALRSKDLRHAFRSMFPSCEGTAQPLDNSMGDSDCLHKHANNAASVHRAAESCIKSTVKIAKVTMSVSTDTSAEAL
Protocol: The compound of Formula I can be tested using the following assays to determine their affinity for binding to the cannabinoid receptors.
Stable cell lines were constructed expressing either the human peripheral cannabinoid (CB2) receptor or the human central cannabinoid (CB 1) receptor as described previously (Gerard. et al., Molecular cloning of a human cannabinoid receptor which is also expressed in testis. Biochem. J. (279)129-134, 1991.). […]
CB2 receptor binding assays were performed in 0.2 ml of 10 mM HEPES/KOH (pH 7.4) containing 1 mM EDTA, 0.3 mg/ml human serum albumin (HSA), 1 mM MgCl2, and 2.4 nM [^3 H]Win 55212-2 (Dupont-NEN Canada, Mississauga, ON). […] The residual [^3 H]Win 55212-2 or [^3 H]CP55940(-) bound to the filters was determined by liquid scintillation counting following a 6h equilibration in 5 ml Biofluor O) (Dupont-NEN Canada, Mississauga, ON) scintillation cocktail (efficiency for tritium was approximately 55%). […]

[3] = target: T1, human peripheral cannabinoid (CB2) receptor; assay: CB2 functional assay: cAMP assay in CHO-K1 cells expressing the CB2 receptor; assay type: cell-based; details: forskolin, 37 °C, 15 min
Protocol: Stable cell lines were constructed expressing either the human peripheral cannabinoid (CB2) receptor or the human central cannabinoid (CB 1) receptor as described previously (Gerard. et al., Molecular cloning of a human cannabinoid receptor which is also expressed in testis. Biochem. J. (279)129-134, 1991.). Membranes were prepared from CHO-K1 cells stably expressing the CB2 receptor and HEK293(EBNA) cells stably expressing the CB 1 receptor by differential centrifugation (1000×g for 10 min, then 100,000×g for 30 min, both at 4° C.) following lysis of the cells by nitrogen cavitation at 800 psi for 15 min on ice, as previously described (Frey, E.A., et al., Characterization of the leukotriene D4 receptor in dimethylsulphoxide-dufferentiated U937 cells: comparison with the leukotriene D4 receptor in human-lung and guinea-pig lung. Eur. J. Pharma. (244) 239-250, 1993.). […]
CB2--CHO-K1 cells were seeded at 10^6 cells per 175 cm^2 T-flask in MEM alpha growth medium (MEM alpha medium containing 25 mM HEPES/KOH (pH 7.4), 10% heat inactivated fetal bovine serum, 20 units/ml penicillin G, 20 mg/ml streptomycin sulfate and 500 mg/ml G418) (GIBCO-BRL Canada, Burlington, ON). […] Cell viability was always >96% as determined by trypan blue exclusion. […]

For COc1ccc2c(c1)N(C)C(C)(C)[C@@H]1CC[C@@H](C)C[C@@H]21 [Example 1, (6aR,9R,10aR)-3-Methoxy-5,6,6,9-tetramethyl-5,6,6a,7,8,9,10,10a-octahydro-phenanthridine], the Ki [1] was 0.073 µM and 0.055 µM, the IC50 [2] was 22.3 µM and 27.4 µM and the EC50 [3] was 0.068 µM and 0.149 µM.

In the case of CCCCCCC(C)(C)c1cc(O)c2c(c1)OC(C)(C)[C@@H]1CC=C(CO)C[C@@H]21 [HU-210, reference compound], the IC50 [2] is reported as 0.0025 ± 0.0002 µM.
